US10028956B2, “Methods of treating various cancers using an AXL/cMET inhibitor in combination with other agents” (Ignyta, Inc., priority 2013, dated 2018)
Marks after values point to notes of the source that are not given here.

Legend:
[1] = tested on: CTG-0165 erlotinib-insensitive primary NSCLC human TumorGraft; test: NSCLC TumorGraft model CTG-0165; type: in vivo, mice; details: for % Tumor Growth Inhibition: CTG-0165, 37 days
Experimental: (§1) Methods (for the experiments shown in FIGS. 10 and 11) • Female immunocompromised nu/nu mice (Harlan) between 6-9 weeks of age were housed on irradiated papertwist-enriched ⅛″ corncob bedding (Sheperd) in individual HEPA ventilated cages (Innocage® IVC, Innovive USA) on a 12-hour light-dark cycle at 68-74° F. (20-23° C.) and 30-70% humidity. Animals were fed water ad libitum (reverse osmosis, 2 ppm Cl2) and an irradiated Test rodent diet (Teklad 2919) consisting of 19% protein, 9% fat, and 4% fiber. • Tumor Models: Champions TumorGraft models of NSCLC are owned by Champions Oncology. In this study, animals were implanted unilaterally on the right flank with tumor fragments harvested from host animals. […] Erlotinib (manufacturer: OSI Pharmaceuticals; National Drug Code: 50242-062-01; Lot #: US0002) was formulated using 100% PEG-400 as the vehicle according to manufacturer's specifications.
(§2) Efficacy measurements: Beginning Day 0, tumor dimensions were measured twice weekly by digital caliper (Fowler Ultra-Cal IV) and data including individual and mean estimated tumor volumes (Mean TV±SEM) were recorded for each group; tumor volume was calculated using the formula TV=width^2×length×0.52. At study completion, percent tumor growth inhibition (% TGI) values were calculated and reported for each treatment group (T) versus control (C) using initial (i) and final (f) tumor measurements by the formula: % TGI=1−Tf−Ti/Cf−C; single agent or combination therapies resulting in a TGI>50 at study completion are considered active in the tested model at the evaluated treatment regimen according to NCI guidelines. Individual mice reporting a tumor volume ≤50% of the Day 0 measurement for two consecutive measurements over a seven day period were considered partial responders (PR). If the PR persisted until study completion, percent tumor regression (% TR) was determined using the formula: % TR=1−Tf/Ti×100; a mean value was calculated if multiple PR mice occurred in one group. Individual mice lacking palpable tumors (<4×4 mm^2 for two consecutive measurements over a seven day period) were classified as complete responders (CR); a CR that persisted until study completion was considered a tumor-free survivor (TFS). TFS animals are excluded from efficacy calculations. Statistical differences in tumor volume were determined using a two-tailed One-Way Analysis of Variance (ANOVA) followed by the Dunett's multiple comparisons test comparing treated groups with control and combinations with standard agent alone when possible. All data collected in this study was managed electronically and stored on a redundant server system.

[2] = tested on: CTG-0170 erlotinib-insensitive primary NSCLC human TumorGraft; test: NSCLC TumorGraft model CTG-0170; type: in vivo, mice; details: for % Tumor Growth Inhibition: CTG-0170, 10 days
Experimental: as §1, §2

[3] = tested on: GTL-16 gastric carcinoma xenografts; test: Anti-tumor efficacy in GTL-16 gastric carcinoma xenografts; type: in vivo, mice; details: 10 and 30 mg/kg oral qd
Text: The human gastric cancer cell line, GTL-16 was purchased from ATCC (American Tissue Culture Collection, Manassas, Va.) and cultured in DMEM medium with 10% fetal bovine serum (FBS, Cat# SH3007003, Hyclone Laboratory Inc, Logan, Utah). Female Nu/Nu mice (6-8 weeks, Charles River Laboratory, Wilmington, Mass.) were maintained 5/cage in microisolator units on a standard laboratory diet (Teklad Labchow, Harlan Teklad, Madison, Wis.). Animals were housed under humidity- and temperature-controlled conditions and the light/dark cycle was set at 12-hour intervals. Mice were quarantined at least 1 week prior to experimental manipulation. […] The mice were then monitored daily. […] The length (L) and width (W) of each tumor was measured with a vernier caliper and the mouse body weight was determined every 2-3 days. The tumor volumes were then calculated with the formula of 0.5236*L*W*(L+W)/2. […] Plasma and tumor samples were obtained at 2 hours post final dose at each dose level, and the compound levels in plasma and tumor lysates were measured by LC-MS/MS. The TGI values were calculated at the end of study by comparing the tumor volumes (TV) of each CEP-40783-treatment group with those of vehicle-treated group with the following formula: 1-(the last day TV of compound-treated group/the last day TV of vehicle-treated group).

PK in dog = details: in vivo
[4] = Tolerability / body weight in the xenograft studies; type: in vivo; details: in all of the above studies
AXL = biological target: T1, AXL (Homo sapiens, UniProt P30530); test: AXL enzyme inhibition (recombinant enzyme); type: biochemical
T1 sequence (P30530 26-894): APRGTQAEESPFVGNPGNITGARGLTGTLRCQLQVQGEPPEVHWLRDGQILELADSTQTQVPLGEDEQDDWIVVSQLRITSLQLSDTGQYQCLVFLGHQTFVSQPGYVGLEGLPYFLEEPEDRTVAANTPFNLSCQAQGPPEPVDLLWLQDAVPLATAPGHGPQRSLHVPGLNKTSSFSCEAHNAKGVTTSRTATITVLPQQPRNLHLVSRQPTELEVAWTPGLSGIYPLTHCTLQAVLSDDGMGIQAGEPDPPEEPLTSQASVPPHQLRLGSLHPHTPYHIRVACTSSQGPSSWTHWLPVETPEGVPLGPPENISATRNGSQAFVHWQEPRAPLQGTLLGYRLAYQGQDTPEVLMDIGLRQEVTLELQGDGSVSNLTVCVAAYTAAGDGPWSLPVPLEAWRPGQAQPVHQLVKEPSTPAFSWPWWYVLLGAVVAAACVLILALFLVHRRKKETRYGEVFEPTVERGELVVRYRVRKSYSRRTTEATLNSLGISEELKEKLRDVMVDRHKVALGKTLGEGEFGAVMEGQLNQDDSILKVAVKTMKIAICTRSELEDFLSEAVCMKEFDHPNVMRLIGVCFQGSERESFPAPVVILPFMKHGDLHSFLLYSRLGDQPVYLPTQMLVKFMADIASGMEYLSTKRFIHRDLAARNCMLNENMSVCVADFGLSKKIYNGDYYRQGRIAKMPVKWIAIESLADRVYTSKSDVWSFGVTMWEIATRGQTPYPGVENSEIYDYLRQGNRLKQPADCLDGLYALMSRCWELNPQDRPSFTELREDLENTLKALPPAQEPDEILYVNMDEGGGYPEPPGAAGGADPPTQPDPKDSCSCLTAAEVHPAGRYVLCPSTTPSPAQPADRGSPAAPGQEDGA

[5] = intravenous, 0.5 mg/kg i.v. and p.o.

SMILES: COc1cc2nccc(Oc3ccc(NC(=O)c4cn(C(C)C)c(=O)n(-c5ccc(F)cc5)c4=O)cc3F)c2cc1OC [CEP-40783, 3-(4-Fluorophenyl)-1-isopropyl-2,4-dioxo-1,2,3,4-tetrahydropyrimidine-5-carboxylic acid [4-(6,7-dimethoxyquinolin-4-yloxy)-3-fluorophenyl]-amide]
- % Tumor Growth Inhibition ([1]; 10 mg/kg po/qd): 116%*†
- % Tumor Growth Inhibition ([1]; 30 mg/kg po/qd): 118%*†
- efficacy in erlotinib-insensitive TumorGraft ([1]; CTG-0165, oral 10 mg/kg and 30 mg/kg): tumor regressions
- % Tumor Growth Inhibition ([2]; 10 mg/kg po/qd): 104%*†
- % Tumor Growth Inhibition ([2]; 30 mg/kg po/qd): 107%*†
- efficacy in erlotinib-insensitive TumorGraft ([2]; CTG-0170, oral 10 mg/kg and 30 mg/kg): tumor regressions
- anti-tumor efficacy (tumor volume) [3]: tumor stasis and regressions
- Cmax (PK in dog; 0.5 mg/kg i.v. and p.o.): 1170 ng/mL
- Vd (PK in dog; [5]): 1.3 L/kg
- clearance (PK in dog; [5]): 0.5 mL/min/kg
- half-life (PK in dog; iv, 0.5 mg/kg i.v., read-out: t1/2 i.v. (converted)): 1660 min
- bioavailability (PK in dog; oral, 0.5 mg/kg i.v. and p.o.): 100%
- AUC(0-t) (PK in dog; po, 0.5 mg/kg p.o.): 14400 ng·h/mL
- tolerability, body weight [4]: well tolerated with no compound-related body weight loss
- IC50 (AXL): 7 nM
